Here are results for one compound from patent US11752117B2, “Methods and compositions for diagnosing and treating glaucoma” (priority 2017, dated 2023).

Series [1] has as its system sulfonylurea receptor in trabecular meshwork cells. Put plainly: 3H-glibenclamide binding and displacement, bovine trabecular meshwork cells. Particulars: bovine TM cells, compared with RIN-m5F cells. How it is done:
FIG. 1 depicts, in accordance with embodiments herein, binding of ^3H-glibenclamide to bovine trabecular meshwork cells (2.5×10^5 per 0.5 ml of reaction mixture) at various concentrations of ligand. Red: non-specific binding; green: specific binding. Shown is mean±SD.
FIG. 2 depicts, in accordance with embodiments herein, displacement of ^3H-glibenclamide bound to trabecular meshwork cells (green) and RIN-m5F cells (red) by tolbutamide.
Non-specific binding was determined as the residual binding in the presence of 20 μM non-labeled glibenclamide. After 2 hrs incubation, ^3H-bound glibenclamide was separated from free ^3H-glibenclamide on Whatman GF/F filters soaked in incubation buffer. Specific binding as calculated as the difference between binding in the absence and presence of non-labeled […] glibenclamide (FIG. 1).

Another series has as its system patients. Put plainly: Adverse ocular effects of tolbutamide eye drops.

Excerpt for patients: Specifically, patients were monitored for discomfort, ocular pain, tearing, photophobia, erythema, swelling, discharge and scaling, palpebral conjunctival inflammation, bulbar conjunctival inflammation; limbal inflammation, corneal epithelial changes and focal stromal infiltrates. Symptoms were classified as 0=normal; 1=mild; 2=moderate; and 3=severe.

For `CCCCNC(=O)NS(=O)(=O)c1ccc(C)cc1` [Tolbutamide, tolbutamide], the “kinetics of displacement of 3H-glibenclamide by tolbutamide” value in series [1] is reported as “same kinetics”. In the series on patients (all patients, any time during the study), the “severe symptoms of ocular toxicity” value is reported as “free of severe symptoms”. The “symptoms of ocular toxicity, classification” value with patients (drops to the eye, all cases) is given as 0-1.
